Source: patent US20060021075A1, “Group 1 CD1 transgenic mice and their uses” (priority 2004, published 2006)

System: BM-DCs
Assay: Flow cytometric analysis of CD1a, b, c expression on BM-DCs of hCD1Tg mice
Assay type: cell-based, mouse
Settings: BM-DCs from hCD1Tg mice cultured in GM-CSF and IL-4

IFN-γ: cytokine tested for upregulation of CD1 on BM-DCs
Upregulation of CD1a, b, and c expression on BM-DCs: cannot be upregulated

TNF-α
Upregulation of CD1a, b, and c expression on BM-DCs: cannot be upregulated
